From US7799811B2, “Agent for prevention and treatment of cancer comprising oxadiazole urea compound obstructing activity of stat” (Korea Research Institute of Bioscience and Biotechnology, priority 2006, dated 2010)

Key:
STAT3 = biological target: T1, STAT3 (Homo sapiens, UniProt P40763); assay: dual luciferase assay for STAT3 inhibitory activity in transfected HCT116 cells; format: cell-based; settings: HCT116 cells transfected with STAT3-dependent firefly luciferase; 12 hrs or 24 hrs; read-out: concentration inhibiting 50% of STAT3 activity
T1 construct: Colorectal carcinoma HCT116 cells were co-transfected with a plasmid carrying firefly luciferase, whose expression increases with STAT3 activity; endogenous in cells; host or cells: HCT116 human colorectal carcinoma cells
T1 sequence (P40763 whole entry): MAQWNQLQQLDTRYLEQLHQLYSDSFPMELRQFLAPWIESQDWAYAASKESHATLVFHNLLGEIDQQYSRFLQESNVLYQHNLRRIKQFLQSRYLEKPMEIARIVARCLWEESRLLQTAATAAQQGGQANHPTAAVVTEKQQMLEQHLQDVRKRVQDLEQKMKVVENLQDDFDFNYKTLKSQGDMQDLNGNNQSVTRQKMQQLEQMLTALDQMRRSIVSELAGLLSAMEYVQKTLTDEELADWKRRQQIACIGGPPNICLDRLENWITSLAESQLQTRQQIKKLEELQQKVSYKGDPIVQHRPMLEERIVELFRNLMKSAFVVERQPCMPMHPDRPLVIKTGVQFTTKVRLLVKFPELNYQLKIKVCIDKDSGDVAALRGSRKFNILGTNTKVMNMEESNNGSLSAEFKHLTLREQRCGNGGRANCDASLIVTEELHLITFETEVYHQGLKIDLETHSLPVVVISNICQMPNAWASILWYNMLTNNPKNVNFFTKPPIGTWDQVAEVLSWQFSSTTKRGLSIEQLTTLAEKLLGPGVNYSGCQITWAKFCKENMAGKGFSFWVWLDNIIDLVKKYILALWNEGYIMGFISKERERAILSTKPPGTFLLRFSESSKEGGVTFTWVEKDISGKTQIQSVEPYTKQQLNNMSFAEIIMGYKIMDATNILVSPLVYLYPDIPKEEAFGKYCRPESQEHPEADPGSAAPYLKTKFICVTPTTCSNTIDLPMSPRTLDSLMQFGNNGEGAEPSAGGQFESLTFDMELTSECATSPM
Description: A dual luciferase assay was performed to determine whether the oxadiazole urea compound of the present invention has inhibitory activity against STAT3.
Colorectal carcinoma HCT116 cells were co-transfected with a plasmid carrying firefly luciferase, whose expression increases with STAT3 activity, and another plasmid carrying renilla luciferase, which is expressed independently of STAT3 activity. The transfected HCT116 cells were detached using 0.05% trypsin EDTA and seeded onto a 96-well test plate at a density of 1×10^4 cells per well. Cells were cultured in an incubator at 37[…] under 5% CO2 for 3 hrs, and then incubated with DMSO (1%) alone as a control and with the oxadiazole urea compound (dissolved in DMSO) at various concentrations (diluted 1/100).
After 12 hrs or 24 hrs, STAT activity was assayed by adding two different substrates for firefly luciferase and renilla luciferase, beetle luciferin and coelenterazine, to the medium. The luminescence intensity by substrate degradation was measured using a luminometer (Wallac 1420). The measured firefly luciferase activity reflected STAT3 activity in a proportional manner. Renilla luciferase was used to calibrate non-specific cytotoxicity, occurring in each test group, and internal deviation.

[1] = tested on: colorectal carcinoma HCT116 cells; assay: WST-1 growth inhibition assay, HCT116; format: cell-based; settings: Homo sapiens, HCT-116, 24 hrs
Description: (§1) The oxadiazole urea compound of the present invention was estimated for growth inhibitory activity against other human cancer cell lines in a WST-1 assay.
(§2) Human cancer cell lines were cultured in 10% fetal bovine serum (FBS)-containing medium at 37[…] under 5% CO2, and detached using 0.05% trypsin-EDTA. Cells were seeded onto a 96-well plate at a density of 5×10^3 cells per well (for MDA-MB-231 and MDA-MB-468 breast cancer cells) or at a density of 7×10^3 cells per well (for colorectal carcinoma HCT116 and colon cancer SW620 cells).
(§3) Then, cells were cultured in 10% FBS containing medium in an incubator at 37[…] under 5% CO2. After 24 hrs, the medium was exchanged with a medium containing 0.1% DMSO (as a control), or with media containing the oxadiazole urea compound at various concentrations (the compound dissolved in DMSO was diluted in medium), and cells were further cultured for 24 hrs. 10 μl of WST-1 Reagent (Roche) was added to each well, and the plate was incubated for 2 hrs. Absorbance was measured at 450 nm using an ELISA reader (Bio-Rad).

[2] = tested on: MDA-MB-468 breast cancer cells; assay: WST-1 growth inhibition assay, MDA-MB-468; format: cell-based; settings: Homo sapiens, MDA-MB-468 cells, 24 hrs
Description: as §1, §2, §3

colon cancer SW620 cells = assay: WST-1 growth inhibition assay, SW620; format: cell-based; settings: Homo sapiens, SW-620, 24 hrs
Description: as §1, §2, §3

[3] = tested on: MDA-MB-231 breast cancer cells; assay: WST-1 growth inhibition assay, MDA-MB-231; format: cell-based, human; settings: MDA-MB-231 cells, 24 hrs
Description: as §1, §2, §3

SD rats = assay: acute toxicity test on oral application in rats; format: in vivo; settings: single oral dose of 1 g/kg/ml
Description: An acute toxicity test was conducted with 6-week-old specific pathogen-free (SPF) SD rats. The present compound was suspended in injectable distilled water, and orally administered to two SD rats per group at a single dose of 1 g/kg/ml. […] After autopsy, abnormalities of abdominal and thoracic organs were visually observed.

solubility in solvents = format: physicochemical

For `O=C(Nc1ccc(C(F)(F)F)cc1)Nc1nonc1-c1ccc(Cl)cc1` [compound of Chemical Formula 1], the IC50 (STAT3) was 2.5 to 3 µM, the GI50 [1] was 15 µM and the GI50 [2] was 40 µM. For the same compound, the GI50 (colon cancer SW620 cells) was 70 µM, the “50% growth inhibition concentration” value [3] was at least 100 μm and the clinical symptoms (SD rats) was “no special clinical symptoms”. The “solubility in a nonpolar solvent” value (solubility in solvents; nonpolar solvent, such as hexane) was “not dissolved” and the “solubility in a polar solvent” value (solubility in solvents; polar solvent, such as DMSO) was “well dissolved”.
